The values below come from US20100196194A1, “METHOD FOR S[…] WITH OZONE” (BRADFORD I[…], priority 2006, published 2010).

The subject of experiment [1] is spores of the bacterium Bacillus Atrophaeus. The experiment in a line: sterilization of standard spore strips (10E6), growth check after 48 hours at 37° C. in tryptone soya broth. The format is cell-based. From the text: The FIGS. 3A-3B illustrate another experiment, executed on spores of the bacterium Bacillus Atrophaeus (previously known as Bacillus subtilis var. niger); from all bacterial spores, the spores of this bacterium Bacillus Astrophaeus are the most resistant to ozone. Use was made of standard spore strips with the qualification 10E6; these are strips on which in the order of 10^6 bacterial spores have been deposited. The used strips were obtained from the company Etigam BV in Apeldoorn, Netherlands. According to statement of the supplier, these spores were obtained from the American Type Culture Collection (ATCC) 9372.
In this experiment, the spore strips were submitted to a sterilization process, wherein the ozone concentration, the degree of humidity and the treatment time were measured. The spore strips were removed from the sterilization chamber, and than were stored for 48 hours at a temperature of 37° C. in a test tube filled with tryptone soya broth (“tryptone Soya Broth”, TSB). TSB is a standard nutrition medium, obtainable at Tritium-Microbiologie BV in Veldhoven, Netherlands, type indication T406.24.0005.
Each time, four spore strips were treated simultaneously. After the storage time of 48 hours, for each spore strip it was investigated whether bacterial spores had grown. If visually no bacterial growth could be detected, it was assumed that all spores of the relevant spore strip had been killed. If visually bacterial growth could be detected, the relevant spore strip was qualified as “insufficiently sterilized”. The results are presented in the FIGS. 3A and 3B, wherein FIG. 3A relates to measurements at an ambient temperature of 20° C. during the sterilization process and FIG. 3B relates to measurements at an ambient temperature of 30° C. during the sterilization process. The horizontal axis in the figures represents the measured degree of humidity in percentages, the vertical axis represents the time integral of the ozone concentration, indicated as ∫[O3], in units of gr·s/l. In the area 131, 100% of the bacterial spores of all four the test strips were always killed. In the area 132, each time one spore strip was insufficiently sterilized. In the area 133, each time two spore strips were insufficiently sterilized. In the area 134, each time three or four spore strips were insufficiently sterilized. The rectangular areas that are cut away from the top left of the graphs are areas belonging to test strips that were not analyzed.

The next experiment has as its system bacterial spores. Description: relation between ozone concentration and time needed for sterilization of bacterial spore samples. In kind it is cell-based. To be noted: ozone concentration 2-3 mgr/l (based on 1 atm), moisture content 60-80%. The procedure:
Experimentally, the relation has been investigated between ozone concentration and the time needed for sterilization. A typical measurement procedure is as follows. A sample with bacterial spores is prepared, and exposed in the chamber 10 to an ozone-containing atmosphere with a specific temperature and air humidity, during a specific treatment time, after which the sample is removed from the chamber 10. […] Thus, a series of samples is treated, each time with different treatment times. To obtain a greater certainty, the measurements are repeated, which means that at a certain treatment time always multiple measurements are done with different samples.
The treated samples are subsequently placed in a conditioned breeding chamber, and it is monitored at which samples bacterial growth is and at which samples bacterial is not taking place. […]
The results obtained from the culture were correlated to the treatment times. For each value of the ozone concentration, it was assessed what the LONGEST treatment time was where bacterial growth was still observed: this treatment time was apparently insufficient to guarantee 100% elimination of the spores; this measurement point and all measurement points with shorter treatment times, in FIG. 2, are indicated with open circles. […]

In the case of `O=[O+][O-]` [ozone], the “degree of humidity giving optimal sterilization result” value in experiment [1] (FIG. 3A, ambient temperature 20° C.) was “approximately 80 % RH”. The “effect of increasing the ambient temperature on sterilization” value in experiment [1] (ambient temperature increased to 30° C. (versus 20° C.)) was “favourable effect”. Further, the “effect of increasing the degree of humidity on sterilization” value in experiment [1] (degree of humidity increased to 95%) was “did not give clear improvement”. Also, the “sterilization at low degree of humidity” value in experiment [1] (less than 50% RH) is “no good sterilization proved to be possible”. In addition, the “ozone performance equivalent OPEQ (minimum time integral of ozone concentration leading to 100% sterilization)” value in experiment [1] (worst case 60% RH and 20° C., valid at all humidity above 60% RH, at 20° C. and 30° C.) worked out at 15 gr·s/l. In addition, the “sterilization result in experimental set-up” value with bacterial spores is “good results”.
